compound: CC1=CC(=CC=C1)NC2=NC(=CS2)C3=CC=NC=C3 + CC1(C)CCC(c2ccc(Cl)cc2)=C(CN2CCN(c3ccc(C(=O)NS(=O)(=O)c4ccc(N[C@H](CCN5CCOCC5)CSc5ccccc5)c(S(=O)(=O)C(F)(F)F)c4)cc3)CC2)C1 [Navitoclax] (partner 0.5 µM); test: relative viability (nuclei count vs DMSO), 5 days (fraction); higher = more cells survive; conditions: first compound 0.08 µM
Procedure, shortened: (§1)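 The day after seeding in 1536-well plates, lung cancer cell lines were treated by pin tool with a single drug, or with a fixed anchor-drug dose together with five library-drug doses (not always all listed) in √10 steps. After 5 days, a combined fix-and-stain solution (final 0.05% Triton X-100, 1% formaldehyde, 1 ug/ml Hoechst) was added. Nuclei counted on 4× images gave relative viability as treated counts over vehicle counts, reported as the median of duplicate plates.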

Cell Line	relative viability
NCI-H838	0.954
NCI-H1651	0.894
EBC-1	0.376
NCI-H1734	0.835
NCI-H2009	1.05
PC-14	0.922
NCI-H596	0.935
NCI-H2228	0.866
EMC-BAC-2	1.06
NCI-H2087	0.963
Calu-6	0.748
HCC-366	0.934
NCI-H1703	0.92
NCI-H647	0.799
LK-2	0.917
NCI-H2126	0.828
IA-LM	0.74
HCC-44	0.759
A549	1.05
NCI-H727	0.458
NCI-H1299	0.981
NCI-H1792	0.513

same assay, conditions: first compound 0.253 µM

Cell Line	relative viability
NCI-H838	1.09
NCI-H1651	1.2
EBC-1	0.381
NCI-H1734	0.834
NCI-H2009	1.12
LU99A	0.861
PC-14	1.01
NCI-H596	0.943
NCI-H2228	1.07
EMC-BAC-2	1.22
NCI-H2087	0.996
Calu-6	0.685
HCC-366	1.04
NCI-H1703	1.13
NCI-H647	0.887
LK-2	0.958
NCI-H2126	0.912
NCI-H1793	0.521
HCC-44	0.728
A549	1.23
NCI-H727	0.372
NCI-H1299	0.99
NCI-H1792	0.469

same assay, conditions: first compound 0.8 µM

Cell Line	relative viability
NCI-H838	1.04
NCI-H1651	0.948
EBC-1	0.516
NCI-H1734	0.827
NCI-H2009	1.11
LU99A	0.838
PC-14	0.892
NCI-H596	0.725
NCI-H2228	0.622
EMC-BAC-2	1.1
NCI-H2087	0.945
Calu-6	0.763
HCC-366	1.04
NCI-H1703	1.38
NCI-H647	0.938
LK-2	0.901
NCI-H2126	0.849
NCI-H1793	0.523
IA-LM	0.769
HCC-44	0.709
A549	1.19
NCI-H727	0.383
NCI-H1299	0.986
NCI-H1792	0.537

same assay, conditions: first compound 2.53 µM

Cell Line	relative viability
NCI-H838	1.09
NCI-H1651	1.05
EBC-1	0.391
NCI-H1734	0.869
NCI-H2009	1.18
LU99A	0.835
PC-14	0.933
NCI-H596	0.942
NCI-H2228	0.969
EMC-BAC-2	1.15
NCI-H2087	0.799
Calu-6	0.773
HCC-366	0.884
NCI-H1703	1.26
NCI-H647	1.1
NCI-H2126	0.909
NCI-H1793	0.438
IA-LM	0.439
HCC-44	0.749
A549	1.16
NCI-H727	0.345
NCI-H1299	1.07
NCI-H1792	0.515

same assay, conditions: first compound 8 µM

Cell Line	relative viability
NCI-H838	0.924
NCI-H1651	0.899
EBC-1	0.227
NCI-H1734	0.698
NCI-H2009	1.02
LU99A	0.978
PC-14	0.439
NCI-H596	0.643
NCI-H2228	0.655
EMC-BAC-2	0.963
NCI-H2087	0.82
Calu-6	0.711
HCC-366	0.949
NCI-H1703	1.07
NCI-H647	0.942
LK-2	1.46
NCI-H2126	0.778
NCI-H1793	0.402
IA-LM	0.401
HCC-44	0.813
A549	0.866
NCI-H727	0.269
NCI-H1299	1.01
NCI-H1792	0.657

compound: Cc1ccc(NC(=O)c2ccc(CN3CCN(C)CC3)cc2)cc1Nc1nc(-c2cccnc2)cs1 [Masitinib] + CC1(C)CCC(c2ccc(Cl)cc2)=C(CN2CCN(c3ccc(C(=O)NS(=O)(=O)c4ccc(N[C@H](CCN5CCOCC5)CSc5ccccc5)c(S(=O)(=O)C(F)(F)F)c4)cc3)CC2)C1 [Navitoclax] (partner 0.5 µM); test: as above; conditions: first compound 0.01 µM
Procedure, shortened: as §1

Cell Line	relative viability
NCI-H838	1.06
NCI-H1651	1.11
EBC-1	0.363
NCI-H1734	0.861
NCI-H2009	1.16
LU99A	0.755
PC-14	1.05
NCI-H596	0.876
NCI-H2228	0.899
EMC-BAC-2	1.08
NCI-H2087	0.966
Calu-6	0.836
HCC-366	1.04
NCI-H1703	0.748
NCI-H647	1.14
LK-2	1.01
NCI-H2126	0.761
NCI-H1793	0.456
IA-LM	0.733
HCC-44	0.84
A549	1.18
NCI-H727	0.424
NCI-H1299	1.08
NCI-H1792	0.563

same assay, conditions: first compound 0.03162 µM

Cell Line	relative viability
NCI-H838	0.936
NCI-H1651	1
EBC-1	0.397
NCI-H1734	0.779
NCI-H2009	1.12
LU99A	0.758
PC-14	0.89
NCI-H596	0.855
NCI-H2228	1.05
EMC-BAC-2	0.962
NCI-H2087	1.02
Calu-6	0.872
HCC-366	1.03
NCI-H1703	0.898
NCI-H647	1.1
LK-2	0.855
NCI-H2126	0.807
NCI-H1793	0.446
IA-LM	0.699
HCC-44	0.84
A549	1.19
NCI-H727	0.431
NCI-H1299	1.03
NCI-H1792	0.239

same assay, conditions: first compound 0.1 µM

Cell Line	relative viability
NCI-H838	1.14
NCI-H1651	1.15
EBC-1	0.41
NCI-H1734	1
NCI-H2009	1.16
LU99A	0.887
PC-14	0.991
NCI-H596	0.86
NCI-H2228	1.08
EMC-BAC-2	1.16
NCI-H2087	1.1
Calu-6	0.89
HCC-366	1.2
NCI-H1703	0.464
NCI-H647	1.08
LK-2	1.06
NCI-H2126	0.842
NCI-H1793	0.401
IA-LM	1.02
HCC-44	0.952
A549	1.41
NCI-H727	0.385
NCI-H1299	1.04
NCI-H1792	0.643

same assay, conditions: first compound 0.3162 µM

Cell Line	relative viability
NCI-H838	1.01
NCI-H1651	1.02
EBC-1	0.385
NCI-H1734	0.933
NCI-H2009	1.17
LU99A	0.97
PC-14	1.04
NCI-H596	0.894
NCI-H2228	0.705
EMC-BAC-2	1.37
NCI-H2087	1.08
Calu-6	0.821
HCC-366	1.09
NCI-H1703	0.29
NCI-H647	1.23
LK-2	1.21
NCI-H2126	0.823
NCI-H1793	0.41
IA-LM	0.689
HCC-44	0.806
A549	1.19
NCI-H727	0.347
NCI-H1299	1.04
NCI-H1792	0.65

same assay, conditions: first compound 1 µM

Cell Line	relative viability
NCI-H838	1.11
NCI-H1651	1.1
EBC-1	0.494
NCI-H1734	0.842
NCI-H2009	1.13
LU99A	0.791
PC-14	0.937
NCI-H596	0.866
NCI-H2228	0.817
EMC-BAC-2	1.45
NCI-H2087	0.963
Calu-6	0.904
HCC-366	1
NCI-H1703	0.243
NCI-H647	1.09
LK-2	0.885
NCI-H2126	0.798
NCI-H1793	0.404
IA-LM	1.01
HCC-44	0.977
A549	1.23
NCI-H727	0.434
NCI-H1299	1.03
NCI-H1792	0.673

compound: Cc1ccc(NC(=O)c2ccc(CN3CCN(C)CC3)cc2)cc1Nc1nc(-c2cccnc2)cs1 [Masitinib] + COc1cc2c(Oc3ccc(NC(=O)C4(C(=O)Nc5ccc(F)cc5)CC4)cc3F)ccnc2cc1OCCCN1CCOCC1 [Foretinib] (partner 0.25 µM); test: as above; conditions: first compound 0.01 µM
Procedure, shortened: as §1

Cell Line	relative viability
NCI-H1623	0.771
NCI-H838	0.926
NCI-H1651	0.688
EBC-1	0.112
NCI-H1734	0.922
NCI-H2009	1.18
LU99A	0.901
PC-14	0.809
LCLC-103H	0.743
NCI-H596	0.859
NCI-H2228	0.672
EMC-BAC-2	0.873
NCI-H2087	1.26
Calu-6	0.814
NCI-H1703	0.315
NCI-H647	1.34
LK-2	1.19
NCI-H2126	1.08
NCI-H2342	1.09
NCI-H1793	0.63
IA-LM	1.24
NCI-H358	0.769
